Values joined by “and” are separate entries in the source; they are usually repeats but may differ in a detail not shown here. Identical values can stand only once. “Also recorded” adds a separate entry of the source. Like-named read-outs stand apart in the source and are kept apart here. Numbered stars: 1 amine (or outer) side, 2 acyl side, 3 side chain; on linkers, the order of the positions; unused ones are H or OH. Square brackets hold non-standard residues; d marks the D form. Peptide text beside a SMILES is read from it. * marks the point of attachment. Sta = CC(C)C[C@H](N)[C@@H](O)CC(=O)O; Isovaleryl = CC(C)CC(=O)*; CO = O=C([*:1])[*:2]
Target: T1, thermopsin, thermostable acid protease purified from Sulfolobus acidocaldarius culture medium (Sulfolobus acidocaldarius, UniProt P17118)
T1 construct: There are 41 amino acids in front of the NH2 -terminal position of thermopsin including the initiation methionine; made in house; host or cells: native enzyme purified from Sulfolobus acidocaldarius culture medium (not recombinant)
T1 sequence (P17118 42-340): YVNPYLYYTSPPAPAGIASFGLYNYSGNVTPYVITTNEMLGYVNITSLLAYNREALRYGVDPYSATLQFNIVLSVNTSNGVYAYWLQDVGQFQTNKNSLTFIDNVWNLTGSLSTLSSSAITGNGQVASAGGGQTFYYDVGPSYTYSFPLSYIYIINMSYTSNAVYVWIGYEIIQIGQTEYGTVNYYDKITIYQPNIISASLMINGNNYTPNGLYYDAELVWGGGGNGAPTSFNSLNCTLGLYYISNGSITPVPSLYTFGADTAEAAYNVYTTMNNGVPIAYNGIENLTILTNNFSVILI
Experiment: Effects of proteinase inhibitors on thermopsin (preincubation with inhibitor, then 14C-hemoglobin proteolytic assay)
Type: biochemical
Details: for remaining activity at 20 µM: 0.02 mM inhibitor in preincubation (pH 6.0, 37° C., 5 min); for remaining activity at 10 µM: 0.01 mM inhibitor in preincubation (pH 6.0, 37° C., 5 min)
Method: Proteolytic activity is routinely assayed using ^14 C-methylated bovine hemoglobin as substrate, as prepared according to the method of Lin, et al., J. Biol. Chem. 264,4482-4489 (1989). The assay mixture, containing 0.51% hemoglobin substrate and thermopsin in 0.1 ml of 0.1M sodium formate, pH 3.2, is placed in an Eppendorf tube. After incubation at 80° C. for a period of time between 5 to 30 min, depending on the level of activity of thermopsin used, an aliquot of 0.1 ml of 10% trichloracetic acid is added to stop the reaction and precipitate the protein. After removal of the precipitate by centrifugation, the radioactivity of an aliquot of the clear supernate is determined in a scintillation counter.
The effect of various protease inhibitors on the activity of thermopsin was tested.
Thermopsin is preincubated with the indicated level of inhibitor in 0.1 M
phosphate buffer, pH 6.0, containing 1 mM EDTA and DTT at 37° C.
for 5 min. Sodium formate (pH 3.2) and ^14 CHemoglobin is then added
to a concentration as described above. The enzyme assay is then carried
out at 80° C. for 15 min. Enzyme activity is expressed as percent

[1] = concentration not given, see Table II
[2] = assay pH 3.2, 80° C., 15 min, percent of control, read-out: Enzyme Activity (%)

CCCCC(NC(=O)C=[N+]=[N-])C(=O)OC (racemic) [DAN, diazoacetyl-DL-norleucinemethlyester]
remaining activity at 12000 µM (12 mM inhibitor in preincubation (pH 6.0, 37° C., 5 min), assay pH 3.2, 80° C., 15 min, percent of control, read-out: Enzyme Activity (%)): 100%
effect of inhibitor on thermopsin activity (in words) [1]: not inactivated; also recorded: no effect

CC(C)[C@H](NC(=O)[C@H](CCCNC(=N)N)NC(=O)N[C@@H](Cc1ccccc1)C(=O)O)C(=O)N[C@H](C=O)CCCNC(=N)N [Antipain, antipain] ({Phe-CO}-Arg-Val-Arg-aldehyde)
remaining activity at 20 µM [2]: 25%
effect of inhibitor on thermopsin activity (in words) [1]: inhibited; also recorded: significant inhibition

O=C(O)CN(CCN(CC(=O)O)CC(=O)O)CC(=O)O [EDTA]
effect of inhibitor on thermopsin activity (in words): little effect
remaining activity at 1000 µM (read-out: Enzyme Activity (%)): 100%

CC(C)C[C@H](NC(=O)N[C@H](C(=O)N[C@@H](CCC(N)=O)C(=O)N[C@@H](C)C=O)[C@@H]1CCNC(=N)N1)C(=O)O [Elastatinal, elastatinal]
remaining activity at 20 µM [2]: 70%

O=C(O)CI [Iodoacetic Acid, iodoacetic acid]
effect of inhibitor on thermopsin activity (in words): little effect
remaining activity at 100 µM (read-out: Enzyme Activity (%)): 74%

CC(=O)N[C@@H](CC(C)C)C(=O)N[C@@H](CC(C)C)C(=O)N[C@H](C=O)CCCNC(=N)N [Leupeptin, leupeptin]
remaining activity at 4 µM (0.004 mM inhibitor in preincubation (pH 6.0, 37° C., 5 min), assay pH 3.2, 80° C., 15 min, percent of control, read-out: Enzyme Activity (%)): 93%

CCN1C(=O)C=CC1=O [N-ethylmaleimide]
remaining activity at 100 µM (0.1 mM inhibitor in preincubation (pH 6.0, 37° C., 5 min), assay pH 3.2, 80° C., 15 min, percent of control, read-out: Enzyme Activity (%)): 95%
effect of inhibitor on thermopsin activity (in words) [1]: little effect

O=S(=O)(F)Cc1ccccc1 [PMSF, phenylmethylsulfonyl fluoride]
Enzyme Activity (%) (2 mM inhibitor in preincubation (pH 6.0, 37° C., 5 min), assay pH 3.2, 80° C., 15 min, percent of control): 28%
effect of inhibitor on thermopsin activity (in words) [1]: significantly inactivate; also recorded: significant inhibition

CC(C)CC(=O)N[C@H](C(=O)N[C@H](C(=O)N[C@@H](CC(C)C)[C@@H](O)CC(=O)N[C@@H](C)C(=O)N[C@@H](CC(C)C)[C@@H](O)CC(=O)O)C(C)C)C(C)C [Pepstatin, pepstatin] (Isovaleryl-VV[Sta]A[Sta]-OH)
remaining activity at 0.5 µM (0.5 μM inhibitor in preincubation (pH 6.0, 37° C., 5 min), assay pH 3.2, 80° C., 15 min, percent of control, read-out: Enzyme Activity (%)): 50%
remaining activity at 5 µM (5 μM inhibitor in preincubation (pH 6.0, 37° C., 5 min), assay pH 3.2, 80° C., 15 min, percent of control, read-out: Enzyme Activity (%)): 16%
effect of inhibitor on thermopsin activity (in words) [1]: strongly inhibited
IC50 (thermopsin proteolytic activity, hemoglobin substrate, read-out: inhibitor concentration giving 50% inhibition of enzyme activity): ~500 nM and 500 nM

Cc1ccc(S(=O)(=O)N[C@@H](CCCCN)C(=O)CCl)cc1 [TLCK, N-p-Tosyl-1-lysine chloromethyl ketone]
remaining activity at 10 µM [2]: 78%
effect of inhibitor on thermopsin activity (in words) [1]: much less effective

Cc1ccc(S(=O)(=O)N[C@@H](Cc2ccccc2)C(=O)CCl)cc1 [TPCK, N-Tosyl-L-phenylalanine chloromethyl ketone]
remaining activity at 10 µM [2]: 14%
effect of inhibitor on thermopsin activity (in words) [1]: significantly inactivate; also recorded: significant inhibition

From patent US5173403A, “Thermostable acid protease from sulfolobus acidocaldarius and gene” (Oklahoma Medical Research Foundation, priority 1990, dated 1992)
